Laboratory results reported in US20110293745A1, “AURORA KINASE INHIBITORS” (SUNESIS PHARMACEUTICALS, INC., priority 2008, published 2011).

How the values were obtained:
MiaPaca2 = assay: Cell cycle analysis (cells with ≧4N DNA content); type: cell-based; details: Homo sapiens, MIA PaCa-2, MiaPaca2, 16 hours
Text: Cells were fixed, stained, and analyzed.

A2780 = assay: cells; details: Homo sapiens, A2780, 16 h, read-out: Cell Cycle EC50
Experimental: (§1) Cells were fixed, stained, and analyzed. The percentage of cells with ≧4N DNA content as a function of concentration was fit to estimate EC50. For cell cycle analysis on nonadherent cells or cells with irregular morphology (A2780, HL-60, CCRF-CEM, and HT-29), tumor cells were seeded in 12-well tissue culture plates overnight at 37° C. […] Cells were trypsinized, collected, stained with propidium iodide, and analyzed by flow cytometry.

A375 = assay: cells; details: Homo sapiens, A-375, 16 h, read-out: Cell Cycle EC50
Experimental: as §1

CCRF-CEM = assay: cells; details: Homo sapiens, 16 h, read-out: Cell Cycle EC50
Experimental: as §1

Calu-6 = assay: cells; details: Homo sapiens, Calu-6, 16 h, read-out: Cell Cycle EC50
Experimental: as §1

H1299 = assay: cells; details: Homo sapiens, NCI-H1299, 16 h, read-out: Cell Cycle EC50
Experimental: as §1

HCT116 = assay: cells; details: Homo sapiens, HCT-116, 16 h, read-out: Cell Cycle EC50
Experimental: as §1

HL-60 = assay: cells; details: Homo sapiens, HL-60, 16 h, read-out: Cell Cycle EC50
Experimental: as §1

HeLa = assay: cells; details: Homo sapiens, 16 h, read-out: Cell Cycle EC50
Experimental: as §1

MDA-MB-231 = assay: cells; details: Homo sapiens, MDA-MB-231, 16 h, read-out: Cell Cycle EC50
Experimental: as §1

PC3 = assay: cells; details: Homo sapiens, PC-3, 16 h, read-out: Cell Cycle EC50
Experimental: as §1

[1] = test system: A2780 ovarian cancer xenograft; assay: In vivo efficacy, mouse xenograft
Experimental: Percent TGI is then calculated with the following equation: […]
Time To Endpoint (TTE) was calculated for each individual animal to reach the predetermined study end point where the tumor volume becomes 1200 mm^3 or 10% of body weight or a greater than 20% body weight loss for two sequential measurements. The TTE is calculated and the median value is recorded for the group. Tumor Growth Delay (TGD) is then calculated with the following equation: […]
A2780 ovarian cancer cells [200 μL of a 2.5×10^7 cells/mL suspension (1:1 DPBS with cells:Matrigel)] were implanted subcutaneously in the right hind flank of mice. After 7 days, when tumors reached an average volume of approximately 130 mm^3, animals were weighed, randomized by tumor volume (l×w×h×0.52), and assigned to the various study groups before initial dosing.

HT-29 = assay: cells; details: Homo sapiens, HT-29, 16 h, read-out: Cell Cycle EC50
[2] = test system: variety of mice xenograft models representing a range of tissue types; assay: In vivo efficacy across xenograft models (summary); details: dose-dependent, well tolerated doses
[3] = Bioavailability profile, IV, IP and PO; type: in vivo, mice; details: for F: mice, 50 mg/kg Compound 1, bioavailability
Text: Pharmacokinetic parameters were estimated using noncompartmental analysis within WinNonlin v. 4.1. […] For rising dose experiments measuring exposure for each species, sets containing several animals were singly dosed at a given dose. […] Abbreviations are as in Table 18; F is fraction of dose absorbed.

[4] = CD-1, mouse, plasma, ip, 50 mg/kg
[5] = CD-1, mouse, plasma, iv, 50 mg/kg
[6] = CD-1, mouse, plasma, po, 50 mg/kg

CS(=O)(=O)O.O=C(Nc1cccc(Cl)c1)Nc1ncc(CCNc2ncnc3ccsc23)s1 [Compound 1, 1-(3-chlorophenyl)-3-{5-[2-(thieno[3,2-d]pyrimidin-4-ylamino)ethyl]thiazo}-urea]
EC50 (MiaPaca2): 9 nM | EC50 (A2780): 6.1 nM | EC50 (A375): 93 nM | EC50 (CCRF-CEM): 4.2 nM | EC50 (Calu-6): 13 nM | EC50 (H1299): 80 nM | EC50 (HCT116): 34 nM | EC50 (HL-60): 7 nM | EC50 (HeLa): 290 nM | EC50 (MDA-MB-231): 30 nM | EC50 (PC3): 11 nM | % TGI ([1]; 42.5 mg/kg biw × 3): 0% | TGD ([1]; 42.5 mg/kg biw × 3): 0 days | % TGI ([1]; 85 mg/kg biw × 3): 9.8% | TGD ([1]; 85 mg/kg biw × 3): 3.5 days | % TGI ([1]; 170 mg/kg biw × 3): 53.8% | TGD ([1]; 170 mg/kg biw × 3): 9 days | EC50 (HT-29): 12 nM | tumor growth inhibition [2]: 58-99%

O=C(Nc1cccc(Cl)c1)Nc1ncc(CCNc2ncnc3ccsc23)s1 [Compound 2, 1-(3-chlorophenyl)-3-{5-[2-(thieno[3,2-d]pyrimidin-4-ylamino)ethyl]thiazol-2-yl}-urea]
AUC(0-inf) [3, 4]: 46200 ng·h/mL | half-life [3, 4]: 42 min | AUC(0-inf) [3, 5]: 43600 ng·h/mL | C0 [3, 5]: 42000 ng/mL | clearance [3, 5]: 19.1 mL/min/kg | half-life [3, 5]: 48 min | Vd ([3]; CD-1, mouse, plasma, iv, 50 mg/kg, read-out: Vss): 1.2 L/kg | AUC(0-inf) [3, 6]: 28300 ng·h/mL | half-life [3, 6]: 198 min | F ([3]; IP): 106% | F ([3]; PO): 65%
